Source: PubChem BioAssay (NCI)
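Cultured in 96-well plates, cells were exposed to test compound for 48 hours across five concentrations. Abbreviation: GI50, concentration required for 50% inhibition of growth. TGI: total growth inhibition.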

Assays:
Test in all cases: growth of human tumour cells (NCI), 48 h
HOP-62 NSCLC = test system: HOP-62 NSCLC
NCI/ADR-RES ovarian = test system: NCI/ADR-RES ovarian
HL-60(TB) leukemia = test system: HL-60(TB) leukemia
UACC-62 melanoma = test system: UACC-62 melanoma
SF-295 CNS = test system: SF-295 CNS
SK-MEL-2 melanoma = test system: SK-MEL-2 melanoma
RXF 393 renal = test system: RXF 393 renal
HCT-116 colon = test system: HCT-116 colon
LOX IMVI melanoma = test system: LOX IMVI melanoma
SW-620 colon = test system: SW-620 colon

SMILES: C[C@H]1O[C@@H](O[C@H]2[C@@H](O)C[C@H](O[C@H]3[C@@H](O)C[C@H](O[C@H]4CC[C@]5(C)C6CC[C@]7(C)[C@@H](C8=CC(=O)OC8)CC[C@]7(O)C6CC[C@@H]5C4)O[C@@H]3C)O[C@@H]2C)C[C@H](O)[C@@H]1O (some centres not stated)
- GI50 (HOP-62 NSCLC): 0.0118 µM
- TGI (HOP-62 NSCLC): 0.0295 µM
- GI50 (NCI/ADR-RES ovarian): 0.0144 µM
- TGI (NCI/ADR-RES ovarian): 0.0435 µM
- GI50 (HL-60(TB) leukemia): 0.0114 µM
- TGI (HL-60(TB) leukemia): 0.0261 µM
- GI50 (UACC-62 melanoma): 0.0192 µM
- TGI (UACC-62 melanoma): 0.075 µM
- GI50 (SF-295 CNS): 0.014 µM
- TGI (SF-295 CNS): 0.0545 µM
- GI50 (SK-MEL-2 melanoma): 0.0192 µM
- TGI (SK-MEL-2 melanoma): 0.0675 µM
- GI50 (RXF 393 renal): 0.0142 µM
- TGI (RXF 393 renal): 0.0439 µM
- TGI (HCT-116 colon): 0.0494 µM
- GI50 (LOX IMVI melanoma): 0.0156 µM
- TGI (LOX IMVI melanoma): 0.0549 µM
- GI50 (SW-620 colon): 0.0178 µM
- TGI (SW-620 colon): 0.0678 µM

SMILES: Cc1c(-c2c(F)cc(C(N)=O)c3[nH]c4c(c23)CC[C@H](C(C)(C)O)C4)cccc1-n1c(=O)c2cccc(F)c2n(C)c1=O
- GI50 (HOP-62 NSCLC): 3.39 µM
- TGI (HOP-62 NSCLC): > 100 µM
- GI50 (NCI/ADR-RES ovarian): 3.58 µM
- TGI (NCI/ADR-RES ovarian): > 100 µM
- GI50 (HL-60(TB) leukemia): 0.971 µM
- TGI (HL-60(TB) leukemia): 3.22 µM
- GI50 (UACC-62 melanoma): 3 µM
- TGI (UACC-62 melanoma): > 100 µM
- GI50 (SF-295 CNS): 4.36 µM
- TGI (SF-295 CNS): 39.6 µM
- GI50 (SK-MEL-2 melanoma): 3.05 µM
- TGI (SK-MEL-2 melanoma): 26 µM
- GI50 (RXF 393 renal): 1.61 µM
- TGI (RXF 393 renal): 5.31 µM
- GI50 (HCT-116 colon): 2.66 µM
- TGI (HCT-116 colon): > 100 µM
- GI50 (LOX IMVI melanoma): 3.13 µM
- TGI (LOX IMVI melanoma): > 100 µM
- GI50 (SW-620 colon): 2.44 µM
- TGI (SW-620 colon): > 100 µM

SMILES: N/C(=N/O)NOCCC(N)C(=O)O (configuration not stated)
- GI50 (HOP-62 NSCLC): > 100 µM
- TGI (HOP-62 NSCLC): > 100 µM
- GI50 (NCI/ADR-RES ovarian): > 100 µM
- TGI (NCI/ADR-RES ovarian): > 100 µM
- GI50 (HL-60(TB) leukemia): > 100 µM
- TGI (HL-60(TB) leukemia): > 100 µM
- GI50 (UACC-62 melanoma): > 100 µM
- TGI (UACC-62 melanoma): > 100 µM
- GI50 (SF-295 CNS): > 100 µM
- TGI (SF-295 CNS): > 100 µM
- GI50 (SK-MEL-2 melanoma): > 100 µM
- TGI (SK-MEL-2 melanoma): > 100 µM
- GI50 (RXF 393 renal): > 100 µM
- TGI (RXF 393 renal): > 100 µM
- GI50 (HCT-116 colon): > 100 µM
- TGI (HCT-116 colon): > 100 µM
- GI50 (LOX IMVI melanoma): > 100 µM
- TGI (LOX IMVI melanoma): > 100 µM
- GI50 (SW-620 colon): > 100 µM
- TGI (SW-620 colon): > 100 µM

SMILES: Cc1cccc(Nc2ncc(-c3ccccc3)o2)c1
- GI50 (HOP-62 NSCLC): > 25 µM
- TGI (HOP-62 NSCLC): > 25 µM
- GI50 (NCI/ADR-RES ovarian): > 25 µM
- TGI (NCI/ADR-RES ovarian): > 25 µM
- GI50 (HL-60(TB) leukemia): > 25 µM
- TGI (HL-60(TB) leukemia): > 25 µM
- GI50 (UACC-62 melanoma): > 25 µM
- TGI (UACC-62 melanoma): > 25 µM
- GI50 (SF-295 CNS): > 25 µM
- TGI (SF-295 CNS): > 25 µM
- GI50 (SK-MEL-2 melanoma): > 25 µM
- TGI (SK-MEL-2 melanoma): > 25 µM
- GI50 (RXF 393 renal): > 25 µM
- TGI (RXF 393 renal): > 25 µM
- GI50 (HCT-116 colon): > 25 µM
- TGI (HCT-116 colon): > 25 µM
- GI50 (LOX IMVI melanoma): > 25 µM
- TGI (LOX IMVI melanoma): > 25 µM
- GI50 (SW-620 colon): > 25 µM
- TGI (SW-620 colon): > 25 µM

SMILES: CCN(Cc1c(F)cccc1C(F)(F)F)c1ccc(CO)c(Cl)c1
- GI50 (HOP-62 NSCLC): 13.7 µM
- TGI (HOP-62 NSCLC): 26.6 µM
- GI50 (NCI/ADR-RES ovarian): 14.7 µM
- TGI (NCI/ADR-RES ovarian): 32.1 µM
- GI50 (HL-60(TB) leukemia): 15.9 µM
- TGI (HL-60(TB) leukemia): 36.9 µM
- TGI (UACC-62 melanoma): 12.6 µM
- TGI (SF-295 CNS): 1.12 µM
- GI50 (SK-MEL-2 melanoma): 3.33 µM
- TGI (SK-MEL-2 melanoma): 24.5 µM
- GI50 (RXF 393 renal): 12.6 µM
- TGI (RXF 393 renal): 28.5 µM
- GI50 (HCT-116 colon): < 0.0371 µM
- TGI (HCT-116 colon): 11.8 µM
- GI50 (LOX IMVI melanoma): 18.1 µM
- TGI (LOX IMVI melanoma): 33.3 µM
- GI50 (SW-620 colon): 0.79 µM
- TGI (SW-620 colon): 20.4 µM

SMILES: Cc1ccc(O)c(C(=O)/C=C/c2ccccc2)c1
- TGI (HOP-62 NSCLC): > 100 µM
- TGI (NCI/ADR-RES ovarian): > 100 µM
- TGI (HL-60(TB) leukemia): > 100 µM
- TGI (UACC-62 melanoma): > 100 µM
- TGI (SF-295 CNS): > 100 µM
- TGI (SK-MEL-2 melanoma): > 100 µM
- TGI (RXF 393 renal): > 100 µM
- TGI (HCT-116 colon): > 100 µM
- TGI (LOX IMVI melanoma): > 100 µM
- TGI (SW-620 colon): > 100 µM

SMILES: Cc1cc(C2CC(O)C(CO)O2)c(Br)cc1Br (configuration not stated)
- GI50 (HOP-62 NSCLC): > 100 µM
- TGI (HOP-62 NSCLC): > 100 µM
- GI50 (NCI/ADR-RES ovarian): > 100 µM
- TGI (NCI/ADR-RES ovarian): > 100 µM
- GI50 (HL-60(TB) leukemia): 73.4 µM
- TGI (HL-60(TB) leukemia): > 100 µM
- GI50 (UACC-62 melanoma): 49.7 µM
- TGI (UACC-62 melanoma): > 100 µM
- GI50 (SF-295 CNS): > 100 µM
- TGI (SF-295 CNS): > 100 µM
- GI50 (SK-MEL-2 melanoma): > 100 µM
- TGI (SK-MEL-2 melanoma): > 100 µM
- GI50 (RXF 393 renal): > 100 µM
- TGI (RXF 393 renal): > 100 µM
- GI50 (HCT-116 colon): > 100 µM
- TGI (HCT-116 colon): > 100 µM
- GI50 (LOX IMVI melanoma): 80.2 µM
- TGI (LOX IMVI melanoma): > 100 µM
- GI50 (SW-620 colon): > 100 µM
- TGI (SW-620 colon): > 100 µM
